Values joined by “and” are separate entries in the source; they are usually repeats but may differ in a detail not shown here. Equal values may be shown once.
What was measured:
RET = target: T1, RET (Homo sapiens, UniProt P07949); assay: Kinase selectivity profile assay; assay type: biochemical
T1 construct: purchased Reaction Biology Corporation (Malvern, PA, USA)
Description: (§1) Kinase activity data was expressed as the percent remaining kinase activity in test samples compared to vehicle (dimethyl sulfoxide) reactions based on the radioactivity of reaction products (see Table S2). Experiment was replicated twice.

CDK9/cyclin K = target: T2, CDK9/cyclin K (Homo sapiens, UniProt P50750); assay: Kinase selectivity profile assay; assay type: biochemical; settings: 500 nM; relative to DMSO; read-out: Residual enzymatic activity
T2 construct: purchased Reaction Biology Corporation
Description: as §1

EGFR = target: T3, EGFR (Homo sapiens, UniProt P00533); assay: Kinase selectivity profile assay; assay type: biochemical; settings: 500 nM, relative to DMSO
T3 construct: purchased Reaction Biology Corporation
T3 sequence (P00533 25-1210): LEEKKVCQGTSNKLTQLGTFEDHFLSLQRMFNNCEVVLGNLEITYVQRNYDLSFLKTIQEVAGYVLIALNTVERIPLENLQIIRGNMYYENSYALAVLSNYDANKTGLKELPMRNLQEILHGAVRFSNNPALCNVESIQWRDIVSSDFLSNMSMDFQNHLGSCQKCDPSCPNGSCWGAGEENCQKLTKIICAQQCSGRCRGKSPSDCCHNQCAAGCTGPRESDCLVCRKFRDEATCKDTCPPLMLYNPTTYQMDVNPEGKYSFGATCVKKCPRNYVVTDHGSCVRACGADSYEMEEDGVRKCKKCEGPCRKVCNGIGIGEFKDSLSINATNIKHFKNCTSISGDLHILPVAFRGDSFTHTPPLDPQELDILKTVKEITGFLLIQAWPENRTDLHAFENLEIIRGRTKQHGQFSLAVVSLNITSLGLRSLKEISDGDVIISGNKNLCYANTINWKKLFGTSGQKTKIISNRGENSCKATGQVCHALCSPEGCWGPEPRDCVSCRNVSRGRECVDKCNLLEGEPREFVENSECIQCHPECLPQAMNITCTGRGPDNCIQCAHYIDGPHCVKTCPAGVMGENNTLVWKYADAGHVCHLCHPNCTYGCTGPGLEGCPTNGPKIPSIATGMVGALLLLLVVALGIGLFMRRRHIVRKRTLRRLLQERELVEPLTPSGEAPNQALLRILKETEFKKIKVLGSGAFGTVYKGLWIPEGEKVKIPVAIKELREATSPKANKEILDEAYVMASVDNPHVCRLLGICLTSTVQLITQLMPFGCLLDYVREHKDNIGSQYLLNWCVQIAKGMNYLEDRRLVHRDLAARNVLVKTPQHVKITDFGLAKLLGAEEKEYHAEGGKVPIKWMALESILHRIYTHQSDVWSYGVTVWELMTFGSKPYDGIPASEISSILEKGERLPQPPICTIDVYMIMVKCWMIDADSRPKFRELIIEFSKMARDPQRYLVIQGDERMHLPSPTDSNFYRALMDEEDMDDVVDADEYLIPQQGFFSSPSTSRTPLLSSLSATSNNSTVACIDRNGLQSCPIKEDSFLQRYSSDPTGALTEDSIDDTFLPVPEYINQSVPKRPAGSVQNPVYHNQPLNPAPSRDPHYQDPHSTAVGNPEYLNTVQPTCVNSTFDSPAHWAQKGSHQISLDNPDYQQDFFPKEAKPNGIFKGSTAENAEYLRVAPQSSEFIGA
Description: as §1

ZIPK/DAPK3 = target: T4, ZIPK/DAPK3 (Homo sapiens, UniProt O43293); assay: Kinase selectivity profile assay; assay type: biochemical; settings: 500 nM; relative to DMSO; read-out: Residual enzymatic activity
T4 construct: purchased Reaction Biology Corporation
Description: as §1

FGFR2 = target: T5, FGFR2 (Homo sapiens, UniProt P21802); assay: Kinase selectivity profile assay; assay type: biochemical; settings: 500 nM, relative to DMSO
T5 construct: purchased Reaction Biology Corporation
T5 sequence (P21802 22-821): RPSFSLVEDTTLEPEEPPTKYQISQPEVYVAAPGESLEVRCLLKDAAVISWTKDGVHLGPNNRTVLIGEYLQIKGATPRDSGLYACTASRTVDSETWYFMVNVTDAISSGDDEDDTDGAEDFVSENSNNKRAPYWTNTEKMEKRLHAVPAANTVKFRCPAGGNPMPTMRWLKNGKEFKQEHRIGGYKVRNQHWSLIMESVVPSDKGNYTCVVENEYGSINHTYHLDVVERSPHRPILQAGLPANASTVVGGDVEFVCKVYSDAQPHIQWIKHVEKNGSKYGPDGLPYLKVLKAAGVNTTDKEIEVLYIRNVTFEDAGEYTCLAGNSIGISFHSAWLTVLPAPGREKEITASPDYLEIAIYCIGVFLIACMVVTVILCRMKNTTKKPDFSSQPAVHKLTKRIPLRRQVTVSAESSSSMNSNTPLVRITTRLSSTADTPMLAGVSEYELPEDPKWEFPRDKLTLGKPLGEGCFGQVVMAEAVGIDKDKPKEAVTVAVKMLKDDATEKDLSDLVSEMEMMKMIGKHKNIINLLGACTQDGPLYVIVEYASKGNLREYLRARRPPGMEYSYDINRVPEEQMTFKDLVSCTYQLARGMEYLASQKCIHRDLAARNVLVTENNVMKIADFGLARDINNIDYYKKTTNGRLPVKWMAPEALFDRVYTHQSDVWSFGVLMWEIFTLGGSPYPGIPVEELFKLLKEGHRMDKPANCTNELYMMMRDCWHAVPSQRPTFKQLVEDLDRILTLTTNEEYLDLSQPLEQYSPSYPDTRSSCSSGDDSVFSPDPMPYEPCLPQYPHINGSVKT
Description: as §1

MLK3/MAP3K11 = target: T6, MLK3/MAP3K11 (Homo sapiens, UniProt Q16584); assay: Kinase selectivity profile assay; assay type: biochemical
T6 construct: purchased Reaction Biology Corporation (Malvern, PA, USA)
T6 sequence (Q16584 whole entry): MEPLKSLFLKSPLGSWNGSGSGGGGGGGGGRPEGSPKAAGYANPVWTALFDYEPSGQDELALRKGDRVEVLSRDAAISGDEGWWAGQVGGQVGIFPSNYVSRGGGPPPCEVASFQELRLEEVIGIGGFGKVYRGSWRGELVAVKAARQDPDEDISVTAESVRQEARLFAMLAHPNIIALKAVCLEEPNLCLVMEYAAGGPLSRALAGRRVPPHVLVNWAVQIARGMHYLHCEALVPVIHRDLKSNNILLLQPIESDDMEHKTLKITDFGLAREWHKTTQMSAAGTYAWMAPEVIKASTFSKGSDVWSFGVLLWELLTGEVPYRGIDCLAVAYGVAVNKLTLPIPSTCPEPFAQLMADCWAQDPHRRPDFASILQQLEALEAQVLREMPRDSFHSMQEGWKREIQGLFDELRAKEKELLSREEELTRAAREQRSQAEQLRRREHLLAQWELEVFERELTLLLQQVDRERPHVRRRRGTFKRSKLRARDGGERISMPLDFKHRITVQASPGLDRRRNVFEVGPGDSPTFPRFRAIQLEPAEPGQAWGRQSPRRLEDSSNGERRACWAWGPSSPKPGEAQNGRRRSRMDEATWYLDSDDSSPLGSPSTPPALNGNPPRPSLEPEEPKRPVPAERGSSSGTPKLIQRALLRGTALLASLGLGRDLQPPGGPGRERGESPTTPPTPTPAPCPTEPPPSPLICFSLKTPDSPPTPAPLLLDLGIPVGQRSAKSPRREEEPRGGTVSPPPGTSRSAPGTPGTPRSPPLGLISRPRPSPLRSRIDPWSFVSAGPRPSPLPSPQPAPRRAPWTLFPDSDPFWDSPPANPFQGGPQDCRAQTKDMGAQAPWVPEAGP
Description: as §1

LCK = target: T7, LCK (Homo sapiens, UniProt P06239); assay: Kinase selectivity profile assay; assay type: biochemical
T7 construct: purchased Reaction Biology Corporation (assay service)
T7 sequence (P06239 whole entry): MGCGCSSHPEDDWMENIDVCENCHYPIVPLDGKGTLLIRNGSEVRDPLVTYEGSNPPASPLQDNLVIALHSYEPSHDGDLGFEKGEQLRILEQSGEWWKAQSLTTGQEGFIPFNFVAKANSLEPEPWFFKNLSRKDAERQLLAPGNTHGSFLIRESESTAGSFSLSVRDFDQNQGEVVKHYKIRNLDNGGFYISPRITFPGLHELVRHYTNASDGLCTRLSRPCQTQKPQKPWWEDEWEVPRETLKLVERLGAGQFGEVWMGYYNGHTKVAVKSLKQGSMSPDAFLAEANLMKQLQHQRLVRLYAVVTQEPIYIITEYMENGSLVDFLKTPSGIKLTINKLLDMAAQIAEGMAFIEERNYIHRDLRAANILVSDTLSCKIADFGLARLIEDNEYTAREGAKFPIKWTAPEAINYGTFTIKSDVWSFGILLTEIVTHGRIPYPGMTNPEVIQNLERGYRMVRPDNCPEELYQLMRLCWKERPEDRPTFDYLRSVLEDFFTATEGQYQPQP
Description: as §1

BMX/ETK = target: T8, BMX/ETK (Homo sapiens, UniProt P51813); assay: Kinase selectivity profile assay; assay type: biochemical
T8 construct: purchased Reaction Biology Corporation (assay service)
T8 sequence (P51813 whole entry): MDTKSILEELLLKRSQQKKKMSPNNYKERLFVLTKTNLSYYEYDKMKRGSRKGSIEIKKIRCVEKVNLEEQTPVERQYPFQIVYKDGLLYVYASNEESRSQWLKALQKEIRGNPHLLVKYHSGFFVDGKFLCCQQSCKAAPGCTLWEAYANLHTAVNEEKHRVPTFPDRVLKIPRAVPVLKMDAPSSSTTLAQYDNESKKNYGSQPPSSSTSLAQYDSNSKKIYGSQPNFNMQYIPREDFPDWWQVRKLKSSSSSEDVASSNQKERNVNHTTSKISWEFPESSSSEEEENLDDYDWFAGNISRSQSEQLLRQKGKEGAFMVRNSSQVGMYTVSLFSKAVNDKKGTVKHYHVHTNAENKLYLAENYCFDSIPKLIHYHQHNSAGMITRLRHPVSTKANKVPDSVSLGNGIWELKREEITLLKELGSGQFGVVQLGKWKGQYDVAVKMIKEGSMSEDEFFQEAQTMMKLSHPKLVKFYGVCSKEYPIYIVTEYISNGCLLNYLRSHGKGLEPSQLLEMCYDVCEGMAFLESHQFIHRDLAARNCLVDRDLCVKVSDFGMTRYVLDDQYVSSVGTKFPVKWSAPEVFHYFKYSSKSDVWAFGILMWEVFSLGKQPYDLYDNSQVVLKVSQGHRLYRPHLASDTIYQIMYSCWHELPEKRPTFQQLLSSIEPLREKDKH
Description: as §1

PAK1 = target: T9, PAK1 (Homo sapiens, UniProt Q13153); assay: Kinase selectivity profile assay; assay type: biochemical; settings: 500 nM; relative to DMSO; read-out: Residual enzymatic activity
T9 construct: purchased Reaction Biology Corporation
Description: as §1

CAMK1a = target: T10, CAMK1a (Homo sapiens, UniProt Q14012); assay: Kinase selectivity profile assay; assay type: biochemical; settings: 500 nM; relative to DMSO; read-out: Residual enzymatic activity
T10 construct: purchased Reaction Biology Corporation
Description: as §1

ROS/ROS1 = target: T11, ROS/ROS1 (Homo sapiens, UniProt P08922); assay: Kinase selectivity profile assay; assay type: biochemical
T11 construct: purchased Reaction Biology Corporation (Malvern, PA, USA)
Description: as §1

[1] = system: Wistar rats, MIA osteoarthritis model; assay: Monosodium iodoacetate induced osteoarthritis in rats; assay type: in vivo, rat
Experimental: Monosodium iodoacetate (MIA) osteoarthritis model was performed at Pharmenterprises, Russia according to the known procedure[32] and approved by Ethics Committee of Pharmenterprises. Male 10 week old Wistar rats were divided into eight groups: negative control (#1), positive control (#2) and six treatment groups (#3–8), ten rats in each group. Group #1 was left intact while rats in groups #2–8 were anesthetized on the day 0 with intraperitoneal injection of Zoletil and Xylazine mixture and given a single intra-articular injection of MIA through the infrapatellar ligament of the right knee. Rats were treated as follows: (#1, #2) 0.5% solution of methylcellulose in PBS (pH = 3) as vehicle control, (#3, #5) 100 mg/kg MT-SYK-03, (#4, #6) 500 mg/kg MT-SYK-03, (#7) 50 mg/kg nalgesin and (#8) 0.1 mg/kg zoledronic acid. Rats in groups #1–4 received treatment intragastrically QD, 25 and 1 h before the MIA injection, and then daily until the end of the study on the day 28. Rats in groups #5–6 received treatment intragastrically QD from the day 7 until the end of the study. Rats in group #7 were treated QD starting on the day 14 and until the end of the study. Finally, rats in group #8 were treated subcutaneously immediately after the MIA injection and then every third day until the study end. Disease progression was monitored by measuring mechanical hyperalgesia, mechanical allodynia and grip strength of hind paws on the days 14, 21, and 28, just before the treatment, and 1, 3, 6 h after it.

[2] = 500 nM, relative to DMSO, read-out: Residual enzymatic activity
[3] = 10-dose mode, threefold serial dilution from 10 μM
[4] = read-out: Residual enzymatic activity
[5] = MT-SYK-03 100 mg/kg, 7–28 days QD, 14 day, 1 hour after admin.
[6] = MT-SYK-03 100 mg/kg, 7–28 days QD, 14 day, 3 hours after admin.
[7] = MT-SYK-03 100 mg/kg, 7–28 days QD, 21 day, 1 hour after admin.
[8] = MT-SYK-03 100 mg/kg, 7–28 days QD, 21 day, 3 hours after admin.
[9] = MT-SYK-03 100 mg/kg, 7–28 days QD, 28 day, 1 hour after admin.
[10] = MT-SYK-03 100 mg/kg, 7–28 days QD, 28 day, 3 hours after admin.
[11] = MT-SYK-03 100 mg/kg, −1–28 days QD, 14 day, 1 hour after admin.
[12] = MT-SYK-03 100 mg/kg, −1–28 days QD, 14 day, 3 hours after admin.
[13] = MT-SYK-03 100 mg/kg, −1–28 days QD, 21 day, 1 hour after admin.
[14] = MT-SYK-03 100 mg/kg, −1–28 days QD, 21 day, 3 hours after admin.
[15] = MT-SYK-03 100 mg/kg, −1–28 days QD, 28 day, 1 hour after admin.
[16] = MT-SYK-03 100 mg/kg, −1–28 days QD, 28 day, 3 hours after admin.
[17] = MT-SYK-03 500 mg/kg, 7–28 days QD, 14 day, 1 hour after admin.
[18] = MT-SYK-03 500 mg/kg, 7–28 days QD, 14 day, 3 hours after admin.
[19] = MT-SYK-03 500 mg/kg, 7–28 days QD, 21 day, 1 hour after admin.
[20] = MT-SYK-03 500 mg/kg, 7–28 days QD, 21 day, 3 hours after admin.
[21] = MT-SYK-03 500 mg/kg, 7–28 days QD, 28 day, 1 hour after admin.
[22] = MT-SYK-03 500 mg/kg, 7–28 days QD, 28 day, 3 hours after admin.
[23] = MT-SYK-03 500 mg/kg, −1–28 days QD, 14 day, 1 hour after admin.
[24] = MT-SYK-03 500 mg/kg, −1–28 days QD, 14 day, 3 hours after admin.
[25] = MT-SYK-03 500 mg/kg, −1–28 days QD, 21 day, 1 hour after admin.
[26] = MT-SYK-03 500 mg/kg, −1–28 days QD, 21 day, 3 hours after admin.
[27] = MT-SYK-03 500 mg/kg, −1–28 days QD, 28 day, 1 hour after admin.
[28] = MT-SYK-03 500 mg/kg, −1–28 days QD, 28 day, 3 hours after admin.

T1 sequence (P07949 29-1114): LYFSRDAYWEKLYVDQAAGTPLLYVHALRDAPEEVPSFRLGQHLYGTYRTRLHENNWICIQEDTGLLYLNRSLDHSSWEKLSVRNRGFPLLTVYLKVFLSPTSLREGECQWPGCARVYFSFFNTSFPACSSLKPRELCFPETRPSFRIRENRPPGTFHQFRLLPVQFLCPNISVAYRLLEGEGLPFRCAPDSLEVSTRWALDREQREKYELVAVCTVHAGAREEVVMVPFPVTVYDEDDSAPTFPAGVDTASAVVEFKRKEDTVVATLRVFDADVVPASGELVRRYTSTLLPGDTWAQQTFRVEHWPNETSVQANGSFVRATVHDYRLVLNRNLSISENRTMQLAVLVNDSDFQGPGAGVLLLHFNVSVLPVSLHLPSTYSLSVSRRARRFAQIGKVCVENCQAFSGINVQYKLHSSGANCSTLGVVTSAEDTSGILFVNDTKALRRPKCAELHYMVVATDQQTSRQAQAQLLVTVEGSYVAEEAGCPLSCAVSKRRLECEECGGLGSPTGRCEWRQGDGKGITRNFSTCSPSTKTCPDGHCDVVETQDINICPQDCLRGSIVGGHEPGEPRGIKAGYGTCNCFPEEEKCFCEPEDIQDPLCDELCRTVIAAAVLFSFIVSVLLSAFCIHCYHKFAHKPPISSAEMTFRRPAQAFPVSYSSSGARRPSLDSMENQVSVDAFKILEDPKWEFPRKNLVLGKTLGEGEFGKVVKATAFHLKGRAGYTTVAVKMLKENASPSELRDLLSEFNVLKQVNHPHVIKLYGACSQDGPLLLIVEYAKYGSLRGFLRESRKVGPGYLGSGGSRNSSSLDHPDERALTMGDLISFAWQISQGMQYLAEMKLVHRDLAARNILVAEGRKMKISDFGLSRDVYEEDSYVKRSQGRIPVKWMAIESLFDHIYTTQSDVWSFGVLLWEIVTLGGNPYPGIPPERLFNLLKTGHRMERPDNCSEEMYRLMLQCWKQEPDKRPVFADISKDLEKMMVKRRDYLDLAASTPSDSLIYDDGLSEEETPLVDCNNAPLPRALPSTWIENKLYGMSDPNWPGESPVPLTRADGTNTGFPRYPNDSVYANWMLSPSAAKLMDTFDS

COc1cc(Nc2ncnc(Nc3cc4c(cn3)NC(=O)C(C)(C)O4)n2)cc(OC)c1OC [MT-SYK-03]
remaining activity at 0.5 µM (RET; [2]): 23% | IC50 (RET; [3]): 13.5 nM | remaining activity at 0.5 µM (CDK9/cyclin K): 95.7% | Residual enzymatic activity (EGFR): 59.6% | remaining activity at 0.5 µM (EGFR; [4]): > 54% | remaining activity at 0.5 µM (ZIPK/DAPK3): 98.4% | Residual enzymatic activity (FGFR2): 65.1% | remaining activity at 0.5 µM (FGFR2; [4]): > 54% | remaining activity at 0.5 µM (MLK3/MAP3K11; [2]): 31.4% | IC50 (MLK3/MAP3K11; [3]): 25.6 nM | remaining activity at 0.5 µM (LCK; [2]): 12% | IC50 (LCK; [3]): 20 nM and 20.1 nM | remaining activity at 0.5 µM (BMX/ETK; [2]): 18% | IC50 (BMX/ETK; [3]): 199 nM | remaining activity at 0.5 µM (PAK1): 100% | remaining activity at 0.5 µM (CAMK1a): 100% | remaining activity at 0.5 µM (ROS/ROS1; [2]): 25.9% | IC50 (ROS/ROS1; [3]): 34.7 nM | hind paws grip strength [1, 5]: 70.1 ± 10.8 % from the initial one | mechanical allodynia pain threshold [1, 5]: 70.2±7.7 % from the initial one | mechanical hyperalgesia [1, 5]: 51.9 ± 4.1 & % from the initial one | hind paws grip strength [1, 6]: 58.9 ± 7.8 & % from the initial one | mechanical allodynia pain threshold [1, 6]: 78.7±10.6 % from the initial one | mechanical hyperalgesia [1, 6]: 50.6 ± 5.6 & % from the initial one | hind paws grip strength [1, 7]: 76.3 ± 6.2 & % from the initial one | mechanical allodynia pain threshold [1, 7]: 75.3±15.4 % from the initial one | mechanical hyperalgesia [1, 7]: 85.1 ± 5 % from the initial one | hind paws grip strength [1, 8]: 62.56 ± 7.58 % from the initial one | mechanical allodynia pain threshold [1, 8]: 73.1±7.9 % from the initial one | mechanical hyperalgesia [1, 8]: 73.5 ± 6.9 & % from the initial one | hind paws grip strength [1, 9]: 74.4 ± 13.0 % from the initial one | mechanical allodynia pain threshold [1, 9]: 61.7±5.8 % from the initial one | mechanical hyperalgesia [1, 9]: 67.7 ± 9.8 & % from the initial one | hind paws grip strength [1, 10]: 58.1 ± 10.0 % from the initial one | mechanical allodynia pain threshold [1, 10]: 78.3±8 % from the initial one | mechanical hyperalgesia [1, 10]: 71.24 ± 7.99 % from the initial one | hind paws grip strength [1, 11]: 56.3 ± 5.2 & % from the initial one | mechanical allodynia pain threshold [1, 11]: 136.3±22.5 & % from the initial one | mechanical hyperalgesia [1, 11]: 73.5 ± 10.5 & % from the initial one | hind paws grip strength [1, 12]: 58.7 ± 8.2 & % from the initial one | mechanical allodynia pain threshold [1, 12]: 136.7±29.2 & % from the initial one | mechanical hyperalgesia [1, 12]: 63.9 ± 7.5 & % from the initial one | hind paws grip strength [1, 13]: 76.5 ± 4.5 & % from the initial one | mechanical allodynia pain threshold [1, 13]: 107.7±12.8 & % from the initial one | mechanical hyperalgesia [1, 13]: 74.4 ± 3.3 &# % from the initial one | hind paws grip strength [1, 14]: 72.69 ± 9.18 % from the initial one | mechanical allodynia pain threshold [1, 14]: 95.5±4.7 & % from the initial one | mechanical hyperalgesia [1, 14]: 80.5 ± 10.3 % from the initial one | hind paws grip strength [1, 15]: 90.5 ± 14.0 % from the initial one | mechanical allodynia pain threshold [1, 15]: 135.8±27.6 & % from the initial one | mechanical hyperalgesia [1, 15]: 65.1 ± 7.4 & % from the initial one | hind paws grip strength [1, 16]: 88.6 ± 18.5 % from the initial one | mechanical allodynia pain threshold [1, 16]: 110.3±16.3 % from the initial one | mechanical hyperalgesia [1, 16]: 67.38 ± 9.74 & % from the initial one | hind paws grip strength [1, 17]: 68.2 ± 11.3 % from the initial one | mechanical allodynia pain threshold [1, 17]: 75.7±3.6 % from the initial one | mechanical hyperalgesia [1, 17]: 51.1 ± 5.4 & % from the initial one | hind paws grip strength [1, 18]: 78.6 ± 12.1 % from the initial one | mechanical allodynia pain threshold [1, 18]: 82.7±12.8 % from the initial one | mechanical hyperalgesia [1, 18]: 77.5 ± 6.9 & % from the initial one | hind paws grip strength [1, 19]: 67.7 ± 7.9 & % from the initial one | mechanical allodynia pain threshold [1, 19]: 74.5±13.9 % from the initial one | mechanical hyperalgesia [1, 19]: 56 ± 7.2 & % from the initial one | hind paws grip strength [1, 20]: 68.23 ± 6.84 % from the initial one | mechanical allodynia pain threshold [1, 20]: 78.9±6.8 % from the initial one | mechanical hyperalgesia [1, 20]: 58.5 ± 7.1 & % from the initial one | hind paws grip strength [1, 21]: 82.8 ± 9.5 % from the initial one | mechanical allodynia pain threshold [1, 21]: 198.4±40.1 & % from the initial one | mechanical hyperalgesia [1, 21]: 75 ± 6.1 & % from the initial one | hind paws grip strength [1, 22]: 79.8 ± 4.3 % from the initial one | mechanical allodynia pain threshold [1, 22]: 161.1±30.5 & % from the initial one | mechanical hyperalgesia [1, 22]: 78.02 ± 9.37 % from the initial one | hind paws grip strength [1, 23]: 62.8 ± 9.9 % from the initial one | mechanical allodynia pain threshold [1, 23]: 113.9±9.7 & % from the initial one | mechanical hyperalgesia [1, 23]: 53.8 ± 4.4 & % from the initial one | hind paws grip strength [1, 24]: 70.3 ± 7.0 & % from the initial one | mechanical allodynia pain threshold [1, 24]: 111.1±17.7 & % from the initial one | mechanical hyperalgesia [1, 24]: 52.5 ± 3.3 & % from the initial one | hind paws grip strength [1, 25]: 89.6 ± 8.7 % from the initial one | mechanical allodynia pain threshold [1, 25]: 105.8±13 & % from the initial one | mechanical hyperalgesia [1, 25]: 75.4 ± 6.4 % from the initial one | hind paws grip strength [1, 26]: 76.56 ± 4.83 % from the initial one | mechanical allodynia pain threshold [1, 26]: 98.1±5.7 & % from the initial one | mechanical hyperalgesia [1, 26]: 64.7 ± 4.3 & % from the initial one | hind paws grip strength [1, 27]: 86.3 ± 8.3 % from the initial one | mechanical allodynia pain threshold [1, 27]: 106.7±12 & % from the initial one | mechanical hyperalgesia [1, 27]: 53.5 ± 3.8 & % from the initial one | hind paws grip strength [1, 28]: 82.3 ± 12.7 % from the initial one | mechanical allodynia pain threshold [1, 28]: 99.2±5.5 & % from the initial one | mechanical hyperalgesia [1, 28]: 61.04 ± 1.81 & % from the initial one | hind paws grip strength ([1]; rat MIA, days 14, 21, 28): trend toward restoration of hind paws grip strength | Mechanical hyperalgesia pain threshold ([1]; rat MIA, prophylactic administration, 100 and 500 mg/kg): statistically significant increase of pain thresholds for both doses from day 14 | mechanical allodynia pain threshold ([1]; rat MIA, prophylactic treatment regimen): on day 14 pain threshold was elevated in all measurements | Mechanical hyperalgesia pain threshold ([1]; rat MIA, therapeutic treatment regimen): statistically significant improvement appeared only on day 28 for higher dose | mechanical allodynia pain threshold ([1]; rat MIA, treatment regimen): statistically significant on day 28 and only in the higher dose
